Results reported in ChEMBL document CHEMBL1201861, “Genomics of Drug Sensitity in Cancer screening data, Wellcome Trust Sanger Institute”.

How the values were obtained:
Assay in all cases: cells
EM-2 = assay type: functional, cell-based, Homo sapiens; details: Homo sapiens, EM-2;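 also: growth inhibition of EM-2 cells, read out with a cell viability assay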
Description: SANGER: Inhibition of human EM-2 cell growth in a cell viability assay.

TK-10 = assay type: functional, cell-based, Homo sapiens; details: Homo sapiens, TK-10;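 also: growth inhibition of TK-10 cells, read out in a cell viability assay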
Description: SANGER: Inhibition of human TK10 cell growth in a cell viability assay.

SK-MEL-1 = assay type: functional, cell-based, Homo sapiens; details: Homo sapiens, SK-MEL-1;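 also: growth inhibition of human SK-MEL-1 cells, read out by a cell viability assay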
Description: SANGER: Inhibition of human SK-MEL-1 cell growth in a cell viability assay.

EW-11 = assay type: functional, cell-based, Homo sapiens; details: Homo sapiens, EW-11;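 also: growth inhibition of human EW-11 cells, measured with a cell viability assay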
Description: SANGER: Inhibition of human EW-11 cell growth in a cell viability assay.

Ramos-2G6-4C10 = assay type: functional, cell-based, Homo sapiens; details: Homo sapiens, Ramos-2G6-4C10;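 also: growth inhibition of the cell line, measured by a cell viability read-out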
Description: SANGER: Inhibition of human Ramos-2G6-4C10 cell growth in a cell viability assay.

U-87 MG = assay type: functional, cell-based, Homo sapiens, U-87MG ATCC; details: Homo sapiens, U-87 MG;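 also: growth inhibition of the cells measured with a viability assay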
Description: SANGER: Inhibition of human U-87-MG cell growth in a cell viability assay.

BE-13 = assay type: functional, cell-based, Homo sapiens; details: Homo sapiens, BE-13;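 also: growth inhibition of human BE-13 cells, measured with a cell viability assay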
Description: SANGER: Inhibition of human BE-13 cell growth in a cell viability assay.

OS-RC-2 = assay type: functional, cell-based, Homo sapiens; details: Homo sapiens, OS-RC-2;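 also: growth inhibition of human OS-RC-2 cells, measured by a cell viability assay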
Description: SANGER: Inhibition of human OS-RC-2 cell growth in a cell viability assay.

TE-6 = assay type: functional, cell-based, Homo sapiens; details: Homo sapiens, TE-6;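 also: growth inhibition of TE-6 cells, read out with a cell viability assay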
Description: SANGER: Inhibition of human TE-6 cell growth in a cell viability assay.

IST-SL1 = assay type: functional, cell-based, Homo sapiens; details: Homo sapiens, IST-SL1;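 also: growth inhibition of human IST-SL1 cells, read out with a cell viability assay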
Description: SANGER: Inhibition of human IST-SL1 cell growth in a cell viability assay.

C2BBe1 = assay type: functional, cell-based, Homo sapiens; details: Homo sapiens, C2BBe1;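 also: growth inhibition of C2BBe1 cells, read out through a viability assay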
Description: SANGER: Inhibition of human C2BBe1 cell growth in a cell viability assay.

DU-4475 = assay type: functional, cell-based, Homo sapiens; details: Homo sapiens, DU-4475
Description: SANGER: Inhibition of human DU-4475 cell growth in a cell viability assay.

MMAC-SF = assay type: functional, cell-based, Homo sapiens; details: Homo sapiens, MMAC-SF;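 also: growth inhibition of human MMAC-SF cells, read out with a cell viability assay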
Description: SANGER: Inhibition of human MMAC-SF cell growth in a cell viability assay.

RS4-11 = assay type: functional, cell-based, Homo sapiens; details: Homo sapiens, RS4-11;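 also: growth inhibition of RS4-11 cells, read out by a cell viability assay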
Description: SANGER: Inhibition of human RS4-11 cell growth in a cell viability assay.

NCI-H747 = assay type: functional, cell-based, Homo sapiens; details: Homo sapiens, NCI-H747;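 also: growth inhibition of human NCI-H747 cells, read out by a cell viability assay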
Description: SANGER: Inhibition of human NCI-H747 cell growth in a cell viability assay.

NCI-H1304 = assay type: functional, cell-based, Homo sapiens; details: Homo sapiens, NCI-H1304;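 also: growth inhibition of the cancer cell line, measured in a cell viability assay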
Description: SANGER: Inhibition of human NCI-H1304 cell growth in a cell viability assay.

NB13 = assay type: functional, cell-based, Homo sapiens; details: Homo sapiens, NB13;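 also: cell viability readout measuring growth inhibition of human NB13 cells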
Description: SANGER: Inhibition of human NB13 cell growth in a cell viability assay.

NCI-H510A = assay type: functional, cell-based, Homo sapiens; details: Homo sapiens, NCI-H510A;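 also: growth inhibition of NCI-H510A cells, read out with a cell viability assay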
Description: SANGER: Inhibition of human NCI-H510A cell growth in a cell viability assay.

GB-1 = assay type: functional, cell-based, Homo sapiens; details: Homo sapiens, GB-1;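 also: growth of GB-1 cells judged by a viability assay, IC50 marks the concentration inhibiting growth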
Description: SANGER: Inhibition of human GB-1 cell growth in a cell viability assay.

GI-ME-N = assay type: functional, cell-based, Homo sapiens; details: Homo sapiens, GI-ME-N;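 also: growth inhibition of human GI-ME-N cells, read out with a cell viability assay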
Description: SANGER: Inhibition of human GI-ME-N cell growth in a cell viability assay.

NCI-H1355 = assay type: functional, cell-based, Homo sapiens; details: Homo sapiens, NCI-H1355;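 also: growth inhibition of human NCI-H1355 cells, read out by a cell viability assay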
Description: SANGER: Inhibition of human NCI-H1355 cell growth in a cell viability assay.

CGTH-W-1 = assay type: functional, cell-based, Homo sapiens; details: Homo sapiens, CGTH-W-1;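 also: growth inhibition of human CGTH-W-1 cells measured by cell viability assay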
Description: SANGER: Inhibition of human CGTH-W-1 cell growth in a cell viability assay.

KS-1 = assay type: functional, cell-based, Homo sapiens; details: Homo sapiens, KS-1;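 also: growth inhibition of KS-1 cells, read out with a cell viability assay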
Description: SANGER: Inhibition of human KS-1 cell growth in a cell viability assay.

MSTO-211H = assay type: functional, cell-based, Homo sapiens; details: Homo sapiens, MSTO-211H
Description: SANGER: Inhibition of human MSTO-211H cell growth in a cell viability assay.

RCC10RGB = assay type: functional, cell-based, Homo sapiens; details: Homo sapiens, RCC10RGB;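 also: growth inhibition of human RCC10RGB cells, read out by a cell viability assay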
Description: SANGER: Inhibition of human RCC10RGB cell growth in a cell viability assay.

U-266 = assay type: functional, cell-based, Homo sapiens; details: Homo sapiens, U-266
Description: SANGER: Inhibition of human U-266 cell growth in a cell viability assay.

DSH1 = assay type: functional, cell-based, Homo sapiens; details: Homo sapiens, DSH1;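 also: growth inhibition of human DSH1 cells, measured with a cell viability readout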
Description: SANGER: Inhibition of human DSH1 cell growth in a cell viability assay.

CAS-1 = assay type: functional, cell-based, Homo sapiens; details: Homo sapiens, CAS-1;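 also: growth inhibition of CAS-1 cells, measured with a cell viability assay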
Description: SANGER: Inhibition of human CAS-1 cell growth in a cell viability assay.

GOTO = assay type: functional, cell-based, Homo sapiens; details: Homo sapiens, GOTO;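 also: growth inhibition of GOTO cells, read out by a cell viability assay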
Description: SANGER: Inhibition of human GOTO cell growth in a cell viability assay.

TE-11 = assay type: functional, cell-based, Homo sapiens; details: Homo sapiens, TE-11;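 also: growth inhibition of human TE-11 cells, read out by a cell viability assay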
Description: SANGER: Inhibition of human TE-11 cell growth in a cell viability assay.

SK-NEP-1 = assay type: functional, cell-based, Homo sapiens; details: Homo sapiens, SK-NEP-1;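 also: growth inhibition of human SK-NEP-1 cells, read out by a cell viability assay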
Description: SANGER: Inhibition of human SK-NEP-1 cell growth in a cell viability assay.

NCI-H1395 = assay type: functional, cell-based, Homo sapiens; details: Homo sapiens, NCI-H1395;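 also: cell viability assay read-out quantifying reduced proliferation of human NCI-H1395 cells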
Description: SANGER: Inhibition of human NCI-H1395 cell growth in a cell viability assay.

OCUB-M = assay type: functional, cell-based, Homo sapiens; details: Homo sapiens, OCUB-M;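 also: growth inhibition of the cancer cell line, read out through a cell viability assay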
Description: SANGER: Inhibition of human OCUB-M cell growth in a cell viability assay.

IA-LM = assay type: functional, cell-based, Homo sapiens; details: Homo sapiens, IA-LM;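 also: cell viability assay measuring growth inhibition of human IA-LM cells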
Description: SANGER: Inhibition of human IA-LM cell growth in a cell viability assay.

K5 = assay type: functional, cell-based, Homo sapiens; details: Homo sapiens, K5
Description: SANGER: Inhibition of human K5 cell growth in a cell viability assay.

D-502MG = assay type: functional, cell-based, Homo sapiens; details: Homo sapiens, D-502MG
Description: SANGER: Inhibition of human D-502MG cell growth in a cell viability assay.

GI-1 = assay type: functional, cell-based, Homo sapiens; details: Homo sapiens, GI-1;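 also: growth inhibition of human GI-1 cells, measured with a cell viability readout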
Description: SANGER: Inhibition of human GI-1 cell growth in a cell viability assay.

NCI-H526 = assay type: functional, cell-based, Homo sapiens; details: Homo sapiens, NCI-H526;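 also: growth inhibition of the human NCI-H526 cell line, measured by a cell viability assay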
Description: SANGER: Inhibition of human NCI-H526 cell growth in a cell viability assay.

EW-24 = assay type: functional, cell-based, Homo sapiens; details: Homo sapiens, EW-24;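 also: human EW-24 cancer cell line, growth inhibition read out via a cell viability assay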
Description: SANGER: Inhibition of human EW-24 cell growth in a cell viability assay.

MOLT-16 = assay type: functional, cell-based, Homo sapiens; details: Homo sapiens, MOLT-16;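 also: growth inhibition of human MOLT-16 cells, read out with a cell viability assay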
Description: SANGER: Inhibition of human MOLT-16 cell growth in a cell viability assay.

EW-3 = assay type: functional, cell-based, Homo sapiens; details: Homo sapiens, EW-3;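 also: cell viability assay read-out, IC50 reflects inhibition of growth of the EW-3 cells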
Description: SANGER: Inhibition of human EW-3 cell growth in a cell viability assay.

D283 Med = assay type: functional, cell-based, Homo sapiens; details: Homo sapiens, D283 Med
Description: SANGER: Inhibition of human D-283MED cell growth in a cell viability assay.

NB69 = assay type: functional, cell-based, Homo sapiens; details: Homo sapiens, NB69;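 also: growth inhibition of NB69 cells, determined by a cell viability assay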
Description: SANGER: Inhibition of human NB69 cell growth in a cell viability assay.

D-247MG = assay type: functional, cell-based, Homo sapiens; details: Homo sapiens, D-247MG
Description: SANGER: Inhibition of human D-247MG cell growth in a cell viability assay.

IST-MES1 = assay type: functional, cell-based, Homo sapiens; details: Homo sapiens, IST-MES1;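 also: growth inhibition of IST-MES1 cells, measured with a cell viability assay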
Description: SANGER: Inhibition of human IST-MES1 cell growth in a cell viability assay.

MPP-89 = assay type: functional, cell-based, Homo sapiens; details: Homo sapiens, MPP-89;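 also: growth inhibition of human MPP-89 cells, read out with a cell viability assay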
Description: SANGER: Inhibition of human MPP-89 cell growth in a cell viability assay.

SNU-C2B = assay type: functional, cell-based, Homo sapiens; details: Homo sapiens, SNU-C2B;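 also: cell viability readout used to measure compound-driven suppression of SNU-C2B cell proliferation, IC50 marking half-maximal growth inhibition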
Description: SANGER: Inhibition of human SNU-C2B cell growth in a cell viability assay.

HOP-62 = assay type: functional, cell-based, Homo sapiens; details: Homo sapiens, HOP-62;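 also: cell growth inhibition determined with a viability assay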
Description: SANGER: Inhibition of human HOP-62 cell growth in a cell viability assay.

HDLM-2 = assay type: functional, cell-based, Homo sapiens; details: Homo sapiens, HDLM-2;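 also: cell viability assay measuring suppression of HDLM-2 proliferation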
Description: SANGER: Inhibition of human HDLM-2 cell growth in a cell viability assay.

With N#Cc1c(O)c2c(-c3ccc(-c4ccccc4O)cc3)csc2[nH]c1=O the IC50 (EM-2) was 344 nM, the IC50 (TK-10) was over 1020 nM and the IC50 (SK-MEL-1) was over 1020 nM. For the same compound, the IC50 (EW-11) was over 1020 nM, the IC50 (Ramos-2G6-4C10) was 172 nM and the IC50 (U-87 MG) was 333 nM. The IC50 (BE-13) was over 1020 nM, the IC50 (OS-RC-2) was over 1020 nM and the IC50 (TE-6) was over 1020 nM. The IC50 (IST-SL1) was over 1020 nM, the IC50 (C2BBe1) was over 1020 nM and the IC50 (DU-4475) was over 1020 nM. It also gave an IC50 (MMAC-SF) of over 1020 nM, an IC50 (RS4-11) of 85.7 nM and an IC50 (NCI-H747) of over 1020 nM. For the same compound, the IC50 (NCI-H1304) was 634 nM, the IC50 (NB13) was over 1020 nM and the IC50 (NCI-H510A) was 692 nM. The IC50 (GB-1) was over 1020 nM, the IC50 (GI-ME-N) was over 1020 nM and the IC50 (NCI-H1355) was over 1020 nM. For the same compound, the IC50 (CGTH-W-1) was over 1020 nM, the IC50 (KS-1) was over 1020 nM and the IC50 (MSTO-211H) was over 1020 nM. The IC50 (RCC10RGB) was over 1020 nM, the IC50 (U-266) was 405 nM and the IC50 (DSH1) was over 1020 nM. The IC50 (CAS-1) was 193 nM, the IC50 (GOTO) was 395 nM and the IC50 (TE-11) was over 1020 nM. For the same compound, the IC50 (SK-NEP-1) was 185 nM, the IC50 (NCI-H1395) was over 1020 nM and the IC50 (OCUB-M) was over 1020 nM. For the same compound, the IC50 (IA-LM) was over 1020 nM, the IC50 (K5) was over 1020 nM and the IC50 (D-502MG) was over 1020 nM. For the same compound, the IC50 (GI-1) was over 1020 nM, the IC50 (NCI-H526) was 468 nM and the IC50 (EW-24) was over 1020 nM. For the same compound, the IC50 (MOLT-16) was 61.9 nM, the IC50 (EW-3) was over 1020 nM and the IC50 (D283 Med) was 386 nM. It also gave an IC50 (NB69) of 686 nM, an IC50 (D-247MG) of over 1020 nM and an IC50 (IST-MES1) of over 1020 nM. For the same compound, the IC50 (MPP-89) was over 1020 nM, the IC50 (SNU-C2B) was over 1020 nM and the IC50 (HOP-62) was over 1020 nM. The IC50 (HDLM-2) was 136 nM.
Work on Cc1ccc(-c2c(C(=O)CCl)n(CCCO)c3ncnc(N)c23)cc1 yielded an IC50 (EM-2) of over 4000 nM, an IC50 (TK-10) of 1950 nM and an IC50 (SK-MEL-1) of over 4000 nM. The IC50 (EW-11) was over 4000 nM, the IC50 (Ramos-2G6-4C10) was over 4000 nM and the IC50 (U-87 MG) was over 4000 nM. It also gave an IC50 (BE-13) of over 4000 nM, an IC50 (OS-RC-2) of over 4000 nM and an IC50 (TE-6) of over 4000 nM. It also gave an IC50 (IST-SL1) of over 4000 nM, an IC50 (C2BBe1) of 2740 nM and an IC50 (DU-4475) of over 4000 nM. The IC50 (MMAC-SF) was over 4000 nM, the IC50 (RS4-11) was over 4000 nM and the IC50 (NCI-H747) was over 4000 nM. For the same compound, the IC50 (NCI-H1304) was over 4000 nM, the IC50 (NB13) was 978 nM and the IC50 (NCI-H510A) was over 4000 nM. It also gave an IC50 (GB-1) of over 4000 nM, an IC50 (GI-ME-N) of 2520 nM and an IC50 (NCI-H1355) of over 4000 nM. The IC50 (CGTH-W-1) was over 4000 nM, the IC50 (KS-1) was 1050 nM and the IC50 (MSTO-211H) was over 4000 nM. The IC50 (RCC10RGB) was over 4000 nM, the IC50 (U-266) was over 4000 nM and the IC50 (DSH1) was over 4000 nM. It also gave an IC50 (CAS-1) of over 4000 nM, an IC50 (GOTO) of over 4000 nM and an IC50 (TE-11) of over 4000 nM. It also gave an IC50 (SK-NEP-1) of over 4000 nM, an IC50 (NCI-H1395) of over 4000 nM and an IC50 (OCUB-M) of over 4000 nM. It also gave an IC50 (IA-LM) of 3210 nM, an IC50 (K5) of over 4000 nM and an IC50 (D-502MG) of over 4000 nM. For the same compound, the IC50 (GI-1) was 2700 nM, the IC50 (NCI-H526) was over 4000 nM and the IC50 (EW-24) was over 4000 nM. It also gave an IC50 (MOLT-16) of over 4000 nM, an IC50 (EW-3) of over 4000 nM and an IC50 (D283 Med) of over 4000 nM. It also gave an IC50 (NB69) of over 4000 nM, an IC50 (D-247MG) of over 4000 nM and an IC50 (IST-MES1) of over 4000 nM. It also gave an IC50 (MPP-89) of over 4000 nM, an IC50 (SNU-C2B) of over 4000 nM and an IC50 (HOP-62) of over 4000 nM. The IC50 (HDLM-2) was over 4000 nM.
COc1cc2ncn(-c3cc(OCc4ccccc4C(F)(F)F)c(C(N)=O)s3)c2cc1OC [GW843682X] was tested, and the IC50 (EM-2) was 111 nM, the IC50 (TK-10) was 90.9 nM and the IC50 (SK-MEL-1) was over 256 nM. For the same compound, the IC50 (EW-11) was over 256 nM, the IC50 (Ramos-2G6-4C10) was 37.4 nM and the IC50 (U-87 MG) was over 256 nM. The IC50 (BE-13) was 11 nM, the IC50 (OS-RC-2) was 188 nM and the IC50 (TE-6) was 17.9 nM. It also gave an IC50 (IST-SL1) of over 256 nM, an IC50 (C2BBe1) of over 256 nM and an IC50 (DU-4475) of 80 nM. The IC50 (MMAC-SF) was over 256 nM, the IC50 (RS4-11) was 12.8 nM and the IC50 (NCI-H747) was 76.7 nM. For the same compound, the IC50 (NCI-H1304) was 105 nM, the IC50 (NB13) was 22 nM and the IC50 (NCI-H510A) was 16.6 nM. It also gave an IC50 (GB-1) of 27.5 nM, an IC50 (GI-ME-N) of 88.3 nM and an IC50 (NCI-H1355) of 11.9 nM. For the same compound, the IC50 (CGTH-W-1) was over 256 nM, the IC50 (KS-1) was 26.6 nM and the IC50 (MSTO-211H) was over 256 nM. For the same compound, the IC50 (RCC10RGB) was over 256 nM, the IC50 (U-266) was 69.8 nM and the IC50 (DSH1) was over 256 nM. The IC50 (CAS-1) was over 256 nM, the IC50 (GOTO) was over 256 nM and the IC50 (TE-11) was 10.7 nM. It also gave an IC50 (SK-NEP-1) of 16.5 nM, an IC50 (NCI-H1395) of over 256 nM and an IC50 (OCUB-M) of 12.2 nM. It also gave an IC50 (IA-LM) of 11.2 nM, an IC50 (K5) of 72.7 nM and an IC50 (D-502MG) of over 256 nM. It also gave an IC50 (GI-1) of 7.3 nM, an IC50 (NCI-H526) of 88.3 nM and an IC50 (EW-24) of over 256 nM. The IC50 (MOLT-16) was 31.5 nM, the IC50 (EW-3) was 66.3 nM and the IC50 (D283 Med) was over 256 nM. The IC50 (NB69) was over 256 nM, the IC50 (D-247MG) was over 256 nM and the IC50 (IST-MES1) was 159 nM. For the same compound, the IC50 (MPP-89) was 226 nM, the IC50 (SNU-C2B) was 7.53 nM and the IC50 (HOP-62) was 44.8 nM. The IC50 (HDLM-2) was 69.5 nM.
